Measured values from US20180207249A1, “METHOD AND VACCINE COMPRISING COPOLYMER 1 FOR TREATMENT OF PSYCHIATRIC DISORDERS” (YEDA RESEARCH AND DEVELOPMENT CO. LTD., priority 2003, published 2018).
Structures can show the parent of a compound that is named as a salt.

Legend:
[1] = test system: C57BL/6J mice injected with MK-801 or AMPH; experiment: Morris water maze (MWM) spatial learning/memory task after psychotomimetic drug; format: in vivo, mouse; conditions: C57BL/6J mice; MK-801 0.1 mg/kg i.p. or AMPH 2.5 mg/kg i.p.; relative to naive normal mice
Experimental: (§1) (iii) Immunization. Each animal was injected with a total of 100 μg of Cop-1 emulsified in an equal volume of complete Freund's adjuvant (CPA) containing 5 mg/ml of Mycobacteria H37 RA (Difco). The emulsion, in a total volume of 0.1 mL, was injected into the flank 1 week before the mouse was first injected with a psychotomimetic drug. Control mice were injected with an equal volume of phosphate-buffered saline (PBS) emulsified in CFA.
(vi) Drug solutions. Fresh solutions of dizocilpine maleate (MK-801; Sigma-Aidrich) were prepared in physiological saline (0.9% NaCl in sterile distilled water) for each batch of mice. Physiological saline was also used as a vehicle for D-amphetamine sulfate (AMPH: Sigma). MK-801. (0.1 mg/kg) or AMPH (2.5 mg/kg) or sahne was injected i.p., in a total volume of 5 ml per kg of body weight. Mice were injected with MK-801, AMPH, or vehicle 15 min before being subjected to behavioral tests.
(vii) Morris water maze (MWM) behavioral test. Spatial learning/memory was assessed by performance on a hippocampal-dependent visuospatial learning task in the MWM. Mice were given four trials per day, for four consecutive days, to find a hidden platform located 1.5 cm below the water surface in a pool 1.4 m in diameter. Within the testing room only distal visuo-spatial cues were available to the mice for location of the submerged platform. The escape latency, i.e., the time required by the mouse to find and climb onto the platform, was recorded for up to 60 s. Each mouse was allowed to remain on the platform for 30 s, and was then moved from the maze to its home cage. […] The inter-trial interval was 30 s. On day 5, the platform was removed from the pool, and each mouse was tested by a probe trial for 60 s. On days 6-7 the platform was placed at the opposite, location, and the mouse was retrained in four sessions. Data were recorded by using an EthoVision automated tracking system (Noldus Information Technology, Wageningen, The Netherlands). […]

[2] = test system: C57BL/6J mice injected with MK-801 or AMPH; experiment: Prepulse inhibition (PPI) of the acoustic startle response after psychotomimetic drug; format: in vivo, mouse; conditions: vehicle (PBS/CFA)-immunized C57BL/6J mice; MK-801 0.1 mg/kg i.p. or AMPH 2.5 mg/kg i.p.
Experimental: as §1
(vi) Drug solutions. Fresh solutions of dizocilpine maleate (MK-801; Sigma-Aidrich) were prepared in physiological saline (0.9% NaCl in sterile distilled water) for each batch of mice. […]
(viii) Prepulse inhibition (PPT). […] Acoustic PPI was measured by prepuise plus pulse trials consisting of a 2-ms prepuise, 100 ms delay, and then a 40-ms, 120-dB startle pulse. […]
PPI was calculated as a percentage score for each acoustic prepulse trial type: % PPI=100. {[(startle response for prepuise+pulse)/(startle response for pulse-alone)]×100}. The magnitude of the acoustic startle response was calculated as the average response to all of the pulse-alone trials, excluding the first and last blocks of five pulse-alone trials each. […]
(xi) Acoustic startle response (ASR). […] The ASR and pre-pulse inhibition were measured using two ventilated startle chambers (SR-LAB system, San Diego Instruments, San Diego, Calif.). […] These readings (signals) were digitized and stored in a computer. […]

Cop-1-reactive T cells = experiment: ELISA of BDNF secreted by Cop-1-reactive T cells; format: cell-based, Lewis rats; conditions: 48 h stimulation with antigen; for BDNF secreted by Cop-1-reactive T cells (mean): mean of three independent experiments, no antigen 400
Experimental: (iv) T-cell lines. Ten days after Cop-1 immunization, T-cell lines were generated from draining lymph node cells obtained from Lewis rats immunized with Cop-1 emulsified in CFA. The lymph nodes were surgically removed, dissociated, washed, and then activated with the antigen (10 μg/ml) in stimulation medium as previously reported (Kipnis et al., 2000). The T-cells lines were expanded by repeated stimulation and propagation.
(v) Enzyme-linked immunosorbent assay. T cell-reactive Cop-1 cells were grown for 1 week in a propagation medium, then washed with PBS and re-suspended in stimulation medium. The cultured T cells (0.5×10^6 cells/mL) were then incubated, in the presence of irradiated thymocytes (10^7 cells/mL), with concanavalin A (Con A; 1.25 μg/mL), myelin basic protein (MRP; 10 μg/ml), Cop-1 (10 μg/mL), ovalbumin (OVA; 10 μg/mL), or no antigen, in stimulation medium. After 48 h the cells were centrifaged and their supernatants were collected and sampled. Concentrations of brain-derived neurotrophic factor (BDNF) in the samples were determined with a sensitive sandwich ELISA. In brief 96-well flat-bottomed plates were coated with a chicken anti-human BDNF antibody (Promega, Madison, Wis.) in 0.025 M NaHCO3 and 0.025 M Na2CO3 (pH 8.2). Recombinant human BDNF (used as a standard; Research Diagnostics, Flanders, N.J.) was used in serial dilutions in blocking solution containing 3% bovine serum albumin, 0.05% polyoxyethylene-sorbitan monolaurate (Tween-20), and 1% fetal calf serum in PBS (pH 8.2). Bound BDNF was detected by incubating the plates with a mouse anti-human BDNF antibody (Research Diagnostics) and then with peroxidase-conjugated goat anti-mouse IgG (Jackson ImmunoResearch, West Grove, Pa.) in blocking solution. The plates were developed using a 3,3′,5,5′-tetramethylbenzidine liquid substrate system (Sigma-Aldrich). The reaction was stopped by adding 1M H3PO4, and the optical density was determined at 450 nm. Results for each experiment were calculated as the amount of secreted BDNF per 1 mL of sample, after subtraction of background levels of the irradiated thymocytes incubated with the stimulation medium.
Cop-1-reactive T cells were cultured for 48 h with Cop-1, MBP, ovalbumin, or concanavalin A in stimulation medium. T cell supernatants were collected and subjected to sandwich ELISA. […] Values are mean values (pg/ml) +/− SE (from three independent experiments) of the amounts of BDNF secreted by Cop-1-specific T cells in response to stimulation by various antigens.

Row | Molecule | Effect of psychotomimetic drug on MWM spatial learning and memory performance [1] | Effect of psychotomimetic drug on PPI of the ASR [2] | BDNF secreted by Cop-1-reactive T cells (mean) (Cop-1-reactive T cells) [pg/mL] | Secretion of BDNF by Cop-1-reactive T cells compared with unstimulated T cells (Cop-1-reactive T cells)
1 | C[C@H](N)Cc1ccccc1 [AMPH, D-amphetamine sulfate] | significantly impaired | significantly disrupted PPI | – | –
2 | C[C@]12N[C@H](Cc3ccccc31)c1ccccc12 [MK-801, (+)dizocilpine maleate] | significantly impaired | significantly disrupted PPI | – | –
3 | concanavalin A [Con A] | – | – | 1100 | –
4 | myelin basic protein (protein, UniProt P02686 1-304, looked up) Myelin basic protein: MGNHAGKRELNAEKASTNSETNRGESEKKRNLGELSRTTSEDNEVFGEADANQNNGTSSQDTAVTDSKRTADPKNAWQDAHPADPGSRPHLIRLFSRDAPGREDNTFKDRPSESDELQTIQEDSAATSESLDVMASQKRPSQRHGSKYLATASTMDHARHGFLPRHRDTGILDSIGRFFGGDRGAPKRGSGKDSHHPARTAHYGSLPQKSHGRTQDENPVVHFFKNIVTPRTPPPSQGKGRGLSLSRFSWGAEGQRPGFGYGGRASDYKSAHKGFKGVDAQGTLSKIFKLGGRDSRSGSPMARR | – | – | 1500 | significantly increased
5 | ovalbumin (protein, UniProt P01012 2-386, looked up) Ovalbumin: GSIGAASMEFCFDVFKELKVHHANENIFYCPIAIMSALAMVYLGAKDSTRTQINKVVRFDKLPGFGDSIEAQCGTSVNVHSSLRDILNQITKPNDVYSFSLASRLYAEERYPILPEYLQCVKELYRGGLEPINFQTAADQARELINSWVESQTNGIIRNVLQPSSVDSQTAMVLVNAIVFKGLWEKAFKDEDTQAMPFRVTEQESKPVQMMYQIGLFRVASMASEKMKILELPFASGTMSMLVLLPDEVSGLEQLESIINFEKLTEWTSSNVMEERKIKVYLPRMKMEEKYNLTSVLMAMGITDVFSSSANLSGISSAESLKISQAVHAAHAEINEAGREVVGSAEAGVDAASVSEEFRADHPFLFCIKHIATNAVLFFGRCVSP | – | – | 440 | –
